# From paper PMC8617507 (Proceedings of the National Academy of Sciences of the …, 2021)
# Values joined by “and” are separate entries in the source; they are usually repeats but may differ in a detail not shown here. Identical values can stand only once. Like-named read-outs stand apart in the source and are kept apart here.
# Assays:
# B. subtilis 168 = assay: Bacterial cell wall integrity assay; assay type: cell-based, Bacillus subtilis; conditions: 30 min exposure; phase-contrast microscopy
# [1] = test system: Lung epithelial A549 cells; assay: cells; conditions: Homo sapiens
# S. pneumoniae = assay: MIC, broth microdilution; assay type: cell-based, Streptococcus pneumoniae; conditions: for MIC: Streptococcus pneumoniae, S. pneumoniae T4 in supplemented C+Y medium, most abundant MIC, Table 2; for reduction in MIC in comparison to THCz-1: S. pneumoniae T4, vs. original screening hit THCz-1
# S. pneumoniae T4 = assay: Lysis and killing kinetics; conditions: THCz-1 5.1 µg/mL, penicillin G 0.06 μg/mL, tetracycline 2 μg/mL
# [2] = test system: Lung epithelial A549 cells
# [3] = test system: B. subtilis PliaI-lux LiaRS bioreporter; assay: Luciferase reporter assay; assay type: cell-based, Bacillus subtilis; conditions: 2 µg/mL THCz-1, 128 µg/mL THCz-5, 8 µg/mL THCz-39, 4 µg/mL THCz-40
# B. subtilis GFP-MinD = assay: MinD delocalization studies; assay type: cell-based, Bacillus subtilis; conditions: within 5 min
# [4] = test system: B. subtilis PypuA-lacZ (cell wall) bioreporter; assay: β-Galactosidase reporter assay, cell wall reporter; assay type: cell-based, Bacillus subtilis; conditions: 10 µg THCz-1, 20 µg THCz-40, 80 µg THCz-39, 100 µg THCz-5 spotted on agar
# PBP2 = assay: PBP2-catalyzed transglycosylation of lipid II in vitro; assay type: biochemical, S. aureus; conditions: compared to THCz-1 and THCz-40
Compound,cell shape deformations / cell membrane blebbing (B. subtilis 168),IC50 [1],MIC (S. pneumoniae),induction of the cell wall responsive reporter strain [4],other results
bacitracin,Membrane blebbing was also observed,,,,
c1ccc(CCNC2CCCc3c2[nH]c2ccccc32)cc1 (centres unmarked) [THCz-19],,22.2 µM and 6.8 µg/mL,6.3 µM and 1.9 µg/mL,,
CN[C@H](CC(C)C)C(=O)N[C@H]1C(=O)N[C@@H](CC(N)=O)C(=O)N[C@H]2C(=O)N[C@H]3C(=O)N[C@H](C(=O)N[C@H](C(=O)O)c4cc(O)cc(O)c4-c4cc3ccc4O)[C@H](O)c3ccc(c(Cl)c3)Oc3cc2cc(c3O[C@@H]2O[C@H](CO)[C@@H](O)[C@H](O)[C@H]2O[C@H]2C[C@](C)(N)[C@H](O)[C@H](C)O2)Oc2ccc(cc2Cl)[C@H]1O [vancomycin],Membrane blebbing was also observed,,,,
"CN(C)[C@@H]1C(O)=C(C(N)=O)C(=O)[C@@]2(O)C(O)=C3C(=O)c4c(O)cccc4[C@@](C)(O)[C@H]3C[C@@H]12 [Tet, tetracycline]",,,,,lysis kinetics (S. pneumoniae T4): growth-inhibitory phenotype without any prominent lysis
"nisin (ITSISLCTPGCKTGALMGCNMKTATCHCSIHVSK; not fully specified; Lantibiotic nisin-A; UniProt P13068 24-57, looked up)",Membrane blebbing was also observed,,,,
c1ccc(CCOC2CCCc3c2[nH]c2ccccc32)cc1 (centres unmarked) [THCz-5],,141 µM and 41 µg/mL,> 100 µM and > 29.1 µg/mL,but not THCz-5,increase of IC50 (cytotoxicity) ([2]; THCz-5 vs. THCz-19): about sixfold; induction of PliaI-lux bioluminescence (LiaRS stress response) [3]: except for the inactive analog THCz-5; delocalization of GFP-MinD (membrane depolarization) (B. subtilis GFP-MinD): MinD delocalization was also observed
Cc1ccc2[nH]c3c(c2c1)CCCC3NCCc1ccc(Br)cc1 (centres unmarked) [THCz-40],induced characteristic cell shape deformations,28 µM and 10.7 µg/mL,6.3 µM and 2.4 µg/mL,specifically induced,reduction in MIC in comparison to THCz-1 (S. pneumoniae): twofold to fourfold
c1ccc(CCNC2CCCc3c2oc2ccc(-c4ccccc4)cc32)cc1 (centres unmarked) [THCz-6],,134 µM and 49.3 µg/mL,50 µM and 18.4 µg/mL,,increase of IC50 (cytotoxicity) ([2]; THCz-6 vs. THCz-2): about sevenfold
Cc1ccc2[nH]c3c(c2c1)CCCC3NCCc1ccc(O)cc1 (centres unmarked) [THCz-39],induced characteristic cell shape deformations,33.4 µM and 10.7 µg/mL,6.3 µM to 12.5 µM and 2 µg/mL to 4 µg/mL,specifically induced,reduction in MIC in comparison to THCz-1 (S. pneumoniae): twofold to fourfold; higher concentration required for full inhibition of the PBP2-catalyzed reaction (PBP2): fourfold
